Each block holds one compound with its values, some of them ahead of it.
What was measured:
[1] = Tablet hardness (Schleuniger hardness meter); type: physicochemical; settings: for Tablet hardness at a compression pressure of 1000 kg/cm^2: phenacetin granules
[2] = Average particle size (sieving, 50% cumulative weight); type: physicochemical; settings: excipient powder
Method: Five grams of trehalose was sifted through screens having screen openings of 500 μm, 300 μm and 250 μm, respectively, and then sifted with Air Jet Sieve by using screens having screen openings of 150 μm, 75 μm, 45 μm, 38 μm and 32 μm, respectively. The oversize particle weight percentage [%] was calculated for each screen, and the average particle size is expressed as a particle size corresponding to a cumulative weight percentage of 50%.

[3] = Disintegration time according to Japanese Pharmacopoeia; type: physicochemical; settings: listed as C
Method: The disintegration time of each of six molded products was measured by the use of ion-exchanged water according to the disintegration time measuring method prescribed in the 13th revised Japanese Pharmacopoeia, and the average of measured values was calculated.

[4] = Whiteness of powder (color analyzer); type: physicochemical; settings: excipient powder
Method: (§1) For powder of trehalose or a pharmaceutical composition containing trehalose, values of L, a and b were measured with a color analyzer (TC-1800MKII, mfd. by Tokyo Denshoku Co., Ltd.), and the whiteness of the trehalose or pharmaceutical composition was calculated by the following equation: […]

[5] = Change in whiteness of excipient mixed with drug at 40° C. and 75% RH (reactivity); type: physicochemical
Method: as §1
One gram of each of the trehaloses obtained in Example 1 and 1 g of isoniazid were mixed and then allowed to stand in an atmosphere of 40° C. and 75% RH, and the change in whiteness of the trehalose was observed. On the other hand, 1 g of each of the trehaloses obtained in Example 1 and 1 g of aminophyline were mixed and then allowed to stand in an atmosphere of 40° C. and 75% RH, and the change in whiteness of the trehalose was observed.
One gram of 100-mesh lactose (available from De Melkindustrie Veghel bv) or 1 g of Mannit S (available from Tohwa Kasei Co., Ltd.) and 1 g of aminophyline were mixed and then allowed to stand in an atmosphere of 40° C. and 75% RH, and the change in whiteness of the lactose or Mannit S was observed.
As a starting material. […]

[6] = Proportion of particles of 75 μm or more (Air Jet Sieve); type: physicochemical; settings: excipient powder
Method: Five grams of trehalose was weighed onto a screen having a screen opening of 75 μm, and sifted with Air Jet Sieve (Model 200LS, mfd. by ALPINE) for 5 minutes, and the weight percentage of the weight of particles remaining on the screen based on the total weight of particles was calculated as the proportion of particles of 75 μm or more.

Apparent specific volume = type: physicochemical; settings: excipient powder
Description: The whole of 10 g of trehalose powder was gently poured into a 100-ml measuring cylinder without making an impact (in this case, a cylinder having an outside diameter smaller than the inside diameter of the measuring cylinder was placed in the measuring cylinder, and it was slowly lifted after pouring the trehalose), and the apparent specific volume was expressed as a value obtained by dividing the read volume by the weight of the trehalose.

[7] = Angle of repose (Sugiwara's instrument); type: physicochemical; settings: excipient powder
Description: Measured by means of a Sugiwara's instrument for measuring angle of repose (Yakuzaigaku 27, p. 260, 1965).

[8] = Water content (Karl Fisher) of tablets before and after storage; type: physicochemical; settings: tablets compressed at 500 kg/cm^2, 0 day
Method: Determined as a value obtained by measuring about 0.1 g of trehalose and determining its water content by the Karl Fisher method.
One hundred grams of commercial “Trehaose” (available from Hayashibara Biochemical Laboratories, Inc.) was dissolved in water to a concentration of about 35 wt %, and the resulting solution was concentrated under reduced pressure with heating at 60° C. so as to have a concentration of about 75 wt %, and allowed to stand at room temperature to precipitate crystals, which were washed with 50 ml of water. Glucose was removed by carrying out the above purification procedure once or twice, to increase the trehalose purity. Trehalose A was obtained by carrying out the purification procedure twice to obtain crystals, drying the crystals, grinding the dried crystals with a bantam mill (number of revolutions 15,000 rpm, feed rate 5 kg/hr, and screen opening 2.0 mmφ), and then sifting the ground crystals through a […]. Trehalose B was obtained by carrying out the purification procedure once to obtain crystals, drying the crystals, grinding the dried crystals with a bantam mill (number of revolutions 10,000 rpm, feed rate 5 kg/hr, and screen opening 2.00 mmφ), and then sifting the ground crystals through a 350-μm screen. Trehalose C was obtained by carrying out the purification procedure once to obtain crystals, drying the crystals, grinding the dried crystals with a bantam mill (number of revolutions 8,000 rpm, feed rate 5 kg/hr, and screen opening 2.0 mmφ), and then sifting the ground crystals through a 350-μm screen. […] Each of trehaloses A to C was compressed into tablets at a compression pressure of 500 kg/cm^2, and the tablet hardness immediately after the compression and the tablet hardness after standing for 3 days in an atmosphere of 40° C. and 75% RH after the compression were compared.
“Trehaose” (available from Hayashibara Bioscience Laboratories Co., Ltd.) was purified once by the method described in Example 1 to obtain crystals, which were dried, ground with a bantam mill (number of revolutions 12,000 rpm, feed rate 5 kg/hr, and screen opening 2.0 mmφ) and then dried at 105° C. for 4 hours to obtain trehalose anhydrous crystals. These crystals were compressed into tablets at a compression pressure of 500 kg/cm^2, and the tablet hardnesses of the tablets were compared in the same manner as in Example 1.

[9] = Wet granulation of phenacetin mixture with HPC binder solution: granule size and yield
[10] = 1 g excipient + 1 g aminophyline, 0 day
[11] = 1 g excipient + 1 g aminophyline, 40° C. and 75% RH, 5 days

Tablet hardness ([1]; Example 8: molded product of trehalose only, molded at 30 kg/cm^2, dried overnight at 40° C., listed as C): 6.0 kg
Tablet hardness ([1]; Example 10: as Example 9 but molded at 60 kg/cm^2, listed as C): 8.6 kg
Tablet hardness ([1]; process of Example 9: 950 g excipient + 50 g phenylpropanolamine hydrochloride, molded at 30 kg/cm^2, listed as C): 5.6 kg
Tablet hardness ([1]; tablets compressed at 500 kg/cm^2, 0 day (immediately after compression), listed as C): 2.3 kgf
Tablet hardness ([1]; tablets compressed at 500 kg/cm^2, 3 days at 40° C. and 75% RH, listed as C): 2.3 kgf
Average particle size ([2]; listed as C): 127 μm
Disintegration time according to Japanese Pharmacopoeia ([3]; Example 8: molded product of trehalose only, 30 kg/cm^2): 10 s
Disintegration time according to Japanese Pharmacopoeia ([3]; Example 10: as Example 9 but molded at 60 kg/cm^2): 33 s
Disintegration time according to Japanese Pharmacopoeia ([3]; process of Example 9: 950 g excipient + 50 g phenylpropanolamine hydrochloride, 30 kg/cm^2): 10 s
Whiteness ([4]; listed as C): 95%
Whiteness ([5]; 1 g excipient + 1 g aminophyline, 0 day, listed as C): 98%
Whiteness ([5]; 1 g excipient + 1 g aminophyline, 40° C. and 75% RH, 1 month, listed as C): 93%
Whiteness ([5]; 1 g excipient + 1 g isoniazid, 0 day, listed as C): 97%
Whiteness ([5]; 1 g excipient + 1 g isoniazid, 40° C. and 75% RH, 1 month, listed as C): 93%
Proportion of particles of 75 μm or more ([6]; listed as C): 73%
Apparent specific volume (Apparent specific volume; listed as C): 1.9 cm^3/g
Angle of repose ([7]; listed as C): 40 °
Water content ([8]; listed as C): 9.8%
SMILES: OC[C@H]1O[C@H](O[C@H]2O[C@H](CO)[C@@H](O)[C@H](O)[C@H]2O)[C@H](O)[C@@H](O)[C@@H]1O [Trehalose C, trehalose]

Average particle size of granules ([9]; phenacetin 50/excipient 30/corn starch 10/microcrystalline cellulose 10, binding solution 100 g): 80 μm
Average particle size of granules ([9]; phenacetin granules, binding solution 120 g): 121 μm
Average particle size of granules ([9]; phenacetin granules, binding solution 160 g): 205 μm
Tablet hardness at a compression pressure of 1000 kg/cm^2 ([1]; binding solution 100 g): 4.5 kgf
Tablet hardness at a compression pressure of 1000 kg/cm^2 ([1]; binding solution 120 g): 4.1 kgf
Tablet hardness at a compression pressure of 1000 kg/cm^2 ([1]; binding solution 160 g): 3.0 kgf
Average particle size ([2]; listed as D): 12 μm
Whiteness ([4]; listed as D): 96%
Proportion of particles of 75 μm or more ([6]; listed as D): 1%
Apparent specific volume (Apparent specific volume; listed as D): 4.5 cm^3/g
Angle of repose ([7]; listed as D): 65 °
Angle of repose ([7]; listed as trehalose D): 65 °
SMILES: OC[C@H]1O[C@H](O[C@H]2O[C@H](CO)[C@@H](O)[C@H](O)[C@H]2O)[C@H](O)[C@@H](O)[C@@H]1O [Trehalose D, trehalose]

Average particle size [2]: 180 μm
Whiteness [4]: 98%
Proportion of particles of 75 μm or more [6]: 91%
Apparent specific volume (Apparent specific volume): 1.5 cm^3/g
Angle of repose [7]: 37 °
SMILES: OC[C@H]1O[C@H](O[C@H]2O[C@H](CO)[C@@H](O)[C@H](O)[C@H]2O)[C@H](O)[C@@H](O)[C@@H]1O [Trehalose H, trehalose]

Average particle size ([2]; listed as G): 31 μm
Whiteness ([4]; listed as G): 94%
Whiteness ([5]; same manner as in Example 2 (drug not stated), 0 day): 94%
Whiteness ([5]; same manner as in Example 2 (drug not stated), 40° C. and 75% RH, 1 month, listed as G): 87%
Whiteness ([5]; same manner as in Example 2 (drug not stated), 40° C. and 75% RH, 1 month, listed as trehalose G): less than 90%
Proportion of particles of 75 μm or more ([6]; listed as G): 13%
Apparent specific volume (Apparent specific volume; listed as G): 3.1 cm^3/g
Angle of repose ([7]; listed as G): 49 °
SMILES: OC[C@H]1O[C@H](O[C@H]2O[C@H](CO)[C@@H](O)[C@H](O)[C@H]2O)[C@H](O)[C@@H](O)[C@@H]1O [Trehalose G, trehalose]

Average particle size ([2]; listed as N): 70 μm
Whiteness ([4]; listed as N): 88%
Proportion of particles of 75 μm or more ([6]; listed as N): 45%
Apparent specific volume (Apparent specific volume; listed as N): 2.2 mL/g
SMILES: OC[C@H]1O[C@H](O[C@H]2O[C@H](CO)[C@@H](O)[C@H](O)[C@H]2O)[C@H](O)[C@@H](O)[C@@H]1O [Trehalose N, trehalose]

Average particle size ([2]; listed as M): 8 μm
Whiteness ([4]; listed as M): 97%
Proportion of particles of 75 μm or more ([6]; listed as M): 1%
Apparent specific volume (Apparent specific volume; listed as M): 3.8 mL/g
SMILES: OC[C@H]1O[C@H](O[C@H]2O[C@H](CO)[C@@H](O)[C@H](O)[C@H]2O)[C@H](O)[C@@H](O)[C@@H]1O [Trehalose M, trehalose]

Average particle size ([2]; listed as L): 45 μm
Whiteness ([4]; listed as L): 95%
Proportion of particles of 75 μm or more ([6]; listed as L): 25%
Apparent specific volume (Apparent specific volume; listed as L): 2.5 mL/g
SMILES: OC[C@H]1O[C@H](O[C@H]2O[C@H](CO)[C@@H](O)[C@H](O)[C@H]2O)[C@H](O)[C@@H](O)[C@@H]1O [Trehalose L, trehalose]

Average particle size [2]: 104 μm
Whiteness [5, 10]: 99%
Whiteness [5, 11]: 30%
Proportion of particles of 75 μm or more [6]: 76%
Apparent specific volume (Apparent specific volume): 1.5 cm^3/g
Angle of repose [7]: 43 °
SMILES: OC[C@H]1O[C@@H](O[C@H]2[C@H](O)[C@@H](O)C(O)O[C@@H]2CO)[C@H](O)[C@@H](O)[C@H]1O (some centres unmarked) [100-Mesh lactose, lactose, reference compound]

Average particle size ([2]; listed as Mannit 5): 102 μm
Whiteness [5, 10]: 100%
Whiteness ([5]; 1 g excipient + 1 g aminophyline, 40° C. and 75% RH, 1 month): 93%
Whiteness [5, 11]: 98%
Proportion of particles of 75 μm or more ([6]; listed as Mannit 5): 68%
Apparent specific volume (Apparent specific volume; listed as Mannit 5): 1.7 cm^3/g
Angle of repose ([7]; listed as Mannit 5): 53 °
SMILES: OC[C@@H](O)[C@@H](O)[C@H](O)[C@H](O)CO [Mannit S, reference compound]

Average particle size [2]: 280 μm
Whiteness [4]: 96%
Proportion of particles of 75 μm or more [6]: 95%
Apparent specific volume (Apparent specific volume): 1.4 cm^3/g
Angle of repose [7]: 30 °
SMILES: OC[C@H]1O[C@H](O[C@H]2O[C@H](CO)[C@@H](O)[C@H](O)[C@H]2O)[C@H](O)[C@@H](O)[C@@H]1O [Trehalose I, trehalose]

Average particle size ([2]; listed as E): 25 μm
Whiteness ([4]; listed as E): 96%
Proportion of particles of 75 μm or more ([6]; listed as E): 3%
Apparent specific volume (Apparent specific volume; listed as E): 3.7 cm^3/g
Angle of repose ([7]; listed as E): 55 °
Angle of repose ([7]; listed as trehalose E): more than 50 °
SMILES: OC[C@H]1O[C@H](O[C@H]2O[C@H](CO)[C@@H](O)[C@H](O)[C@H]2O)[C@H](O)[C@@H](O)[C@@H]1O [Trehalose E, trehalose]

Tablet hardness ([1]; tablets compressed at 500 kg/cm^2, 0 day (immediately after compression), listed as F): 4.5 kgf
Average particle size ([2]; listed as F): 49 μm
Whiteness ([4]; listed as F): 94%
Proportion of particles of 75 μm or more ([6]; listed as F): 28%
Apparent specific volume (Apparent specific volume; listed as F): 2.3 cm^3/g
Angle of repose ([7]; listed as F): 45 °
Water content ([8]; listed as F): 0.5%
SMILES: OC[C@H]1O[C@H](O[C@H]2O[C@H](CO)[C@@H](O)[C@H](O)[C@H]2O)[C@H](O)[C@@H](O)[C@@H]1O [Trehalose F, trehalose]

From patent US20020042393A1, “Excipient” (priority 1998, published 2002)
